Structures are written as SMILES.

The target of this assay is T1, USP25 (USP25-His6, Boston Biochem E-546) (Homo sapiens, UniProt Q9UHP3).
T1 construct: His6; purchased Boston Biochem E-546
T1 sequence (Q9UHP3 1-1055): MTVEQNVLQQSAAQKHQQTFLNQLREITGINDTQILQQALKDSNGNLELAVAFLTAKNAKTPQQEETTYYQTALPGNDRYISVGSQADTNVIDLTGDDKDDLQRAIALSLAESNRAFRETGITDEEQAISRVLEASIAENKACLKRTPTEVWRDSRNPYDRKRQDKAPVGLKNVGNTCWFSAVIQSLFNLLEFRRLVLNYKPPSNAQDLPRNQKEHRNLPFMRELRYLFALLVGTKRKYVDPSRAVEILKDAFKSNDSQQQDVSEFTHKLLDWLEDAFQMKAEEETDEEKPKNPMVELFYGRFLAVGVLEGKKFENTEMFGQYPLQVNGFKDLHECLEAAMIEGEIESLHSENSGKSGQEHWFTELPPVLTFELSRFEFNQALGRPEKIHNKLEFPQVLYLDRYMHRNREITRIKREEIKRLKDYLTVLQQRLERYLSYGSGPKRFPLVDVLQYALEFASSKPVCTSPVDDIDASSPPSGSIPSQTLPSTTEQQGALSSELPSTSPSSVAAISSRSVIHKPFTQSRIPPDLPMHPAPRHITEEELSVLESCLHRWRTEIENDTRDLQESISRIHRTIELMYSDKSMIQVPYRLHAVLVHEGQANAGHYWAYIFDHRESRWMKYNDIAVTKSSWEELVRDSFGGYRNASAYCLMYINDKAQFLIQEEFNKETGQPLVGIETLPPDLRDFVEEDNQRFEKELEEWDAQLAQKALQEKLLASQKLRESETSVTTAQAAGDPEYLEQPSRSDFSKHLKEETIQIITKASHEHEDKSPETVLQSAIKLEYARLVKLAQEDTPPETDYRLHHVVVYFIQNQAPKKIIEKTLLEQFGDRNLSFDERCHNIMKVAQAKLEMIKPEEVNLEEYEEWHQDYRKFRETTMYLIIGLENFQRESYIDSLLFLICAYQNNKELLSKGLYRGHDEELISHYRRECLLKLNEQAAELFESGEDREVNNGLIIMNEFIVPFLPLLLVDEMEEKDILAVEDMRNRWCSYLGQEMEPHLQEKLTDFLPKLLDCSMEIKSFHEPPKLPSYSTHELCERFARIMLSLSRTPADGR
The assay is described as follows: Ubiquitin-Rhodamine 110 Assay for USP25 Activity, Example A-2. The class given is biochemical. To be noted: Ubiquitin-Rhodamine 110 assay, Example A-2; read-out: USP25 A-2 IC50 range. An outline of the steps:
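Steps: compound dilutions (top 25 μM, 3-fold, 10 points) were preincubated 30 min with 75 pM USP25-His6; 25 nM Ub-Rh110 substrate was added under initial-velocity conditions; after 45 min at room temperature, 10 mM citric acid stopped the reaction before fluorescence reading.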

By IC50 is commonly meant the concentration needed to halve the response being measured. Regarding `Cc1ccc2c(N)c(C(=O)N[C@H]3COc4cc(N5C[C@@H](N)[C@H](OC(F)(F)F)C5)ccc4C3)sc2n1` (single isomer, unassigned) [Example 3-9], the IC50 was 0.2 to 2 µM.
The value for `Cc1ccc2c(N)c(C(=O)N[C@H]3COc4cc(N5C[C@H](OC(F)(F)F)[C@@H](N)C5)ccc4C3)sc2n1` (single isomer, unassigned) [Example 3-10] was 0.2 to 2 µM; that for `Cc1ccc2c(N)c(C(=O)N[C@H]3COc4c(cc(F)c(N5CCNCC5)c4F)C3)sc2n1` (single isomer, unassigned) [Example 3-17] was 0.05 to 0.2 µM.
The result for `Cc1ccc2c(N)c(C(=O)N[C@@H]3COc4c(cc(F)c(N5CCNCC5)c4F)C3)sc2n1` (single isomer, unassigned) [Example 3-18] reads greater than 2 µM; that for `Cc1ccc2c(N)c(C(=O)N[C@H]3COc4cc(N5C[C@H](N)CC56COC6)ccc4C3)sc2n1` (single isomer, unassigned) [Example 351], 0.001 to 0.05 µM; that for `Cc1ccc2c(N)c(C(=O)N[C@H]3COc4cc(N5C[C@@H](N)CC56COC6)ccc4C3)sc2n1` (single isomer, unassigned) [Example 352], 0.05 to 0.2 µM.
For the compound `O=C(N[C@H]1CCc2c(c(F)cc(N3CC4CCC(C3)N4)c2C(F)F)C1)c1cnc2c(c1)[C@@H]1C[C@@H]1CN2` (single isomer, unassigned) [Example 359], the IC50 was greater than 2 µM.
The value for `O=C(N[C@H]1CCc2c(c(F)cc(N3CC4CCC(C3)N4)c2C(F)F)C1)c1cnc2c(c1)[C@H]1C[C@H]1CN2` (single isomer, unassigned) [Example 360] was 0.2 to 2 µM.
The result for `O=C(N[C@@H]1CCc2c(c(F)cc(N3CC4CCC(C3)N4)c2C(F)F)C1)c1cnc2c(c1)[C@@H]1C[C@@H]1CN2` (single isomer, unassigned) [Example 361] reads greater than 2 µM; that for `O=C(N[C@@H]1CCc2c(c(F)cc(N3CC4CCC(C3)N4)c2C(F)F)C1)c1cnc2c(c1)[C@H]1C[C@H]1CN2` (single isomer, unassigned) [Example 362], 0.2 to 2 µM.
The value for `Cc1ccc2c(N)c(C(=O)N[C@H]3COc4cc(N5C[C@H](N)[C@@H](F)C5)ccc4C3)sc2n1` [Example 3-7, 3-amino-N-((R)-7-((3S,4S)-3-amino-4-fluoropyrrolidin-1-yl)chroman-3-yl)-6-methylthieno[2,3-b]pyridine-2-carboxamide] was 0.2 to 2 µM.
Regarding `Cc1ccc2c(N)c(C(=O)N[C@H]3COc4cc(N5C[C@@H](N)[C@H](F)C5)ccc4C3)sc2n1` [Example 3-8, 3-amino-N-((R)-7-((3R,4R)-3-amino-4-fluoropyrrolidin-1-yl)chroman-3-yl)-6-methylthieno[2,3-b]pyridine-2-carboxamide], the IC50 was in the range of 0.2 to 2 µM.
The result for `Cc1ccc2c(N)c(C(=O)N[C@H]3COc4cc(N5CCN[C@@H](C(F)(F)F)C5)ccc4C3)sc2n1` [Example 3-11, 3-amino-6-methyl-N-((R)-7-((R)-3-(trifluoromethyl)piperazin-1-yl)chroman-3-yl)thieno[2,3-b]pyridine-2-carboxamide] reads 0.2 to 2 µM; that for `Cc1ccc2c(N)c(C(=O)N[C@H]3COc4cc(N5CCN[C@H](C(F)(F)F)C5)ccc4C3)sc2n1` [Example 3-12, 3-amino-6-methyl-N-((R)-7-((S)-3-(trifluoromethyl)piperazin-1-yl)chroman-3-yl)thieno[2,3-b]pyridine-2-carboxamide], 0.2 to 2 µM.
In the case of `Cc1ccc2c(N)c(C(=O)N[C@H]3COc4cc(N5CC[C@]6(CCCNC6)C5)ccc4C3)sc2n1` [Example 3-13, N-((R)-7-((S)-2,7-diazaspiro[4.5]decan-2-yl)chroman-3-yl)-3-amino-6-methylthieno[2,3-b]pyridine-2-carboxamide], the IC50 is 0.2 to 2 µM.
The result for `Cc1ccc2c(N)c(C(=O)N[C@H]3COc4cc(N5CC[C@@]6(CCCNC6)C5)ccc4C3)sc2n1` [Example 3-14, N-((R)-7-((R)-2,7-diazaspiro[4.5]decan-2-yl)chroman-3-yl)-3-amino-6-methylthieno[2,3-b]pyridine-2-carboxamide] reads 0.05 to 0.2 µM; that for `O=C(N[C@H]1COc2cc(N3CC4CCC(C3)N4)ccc2C1)c1cnc2c(c1)[C@@H]1C[C@@H]1CN2` [Example 3-15, (1aS,7bR)-N-((3R)-7-(3,8-diazabicyclo[3.2.l]octan-3-yl)chroman-3-yl)-1a,2,3,7b-tetrahydro-1H-cyclopropa[c][1,8]naphthyridine-6-carboxamide], 0.05 to 0.2 µM; that for `O=C(N[C@H]1COc2cc(N3CC4CCC(C3)N4)ccc2C1)c1cnc2c(c1)[C@H]1C[C@H]1CN2` [Example 3-16, (1aR,7bS)-N-((3R)-7-(3,8-diazabicyclo[3.2.1]octan-3-yl)chroman-3-yl)-1a,2,3,7b-tetrahydro-1H-cyclopropa[c][1,8]naphthyridine-6-carboxamide], greater than 2 µM.
Regarding `Cc1ccc2c(N)c(C(=O)N[C@H]3COc4cc(N5CCC(F)(F)CC5)ccc4C3)sc2n1` [Example 5-1, (R)-3-amino-N-(7-(4,4-difluoropiperidin-1-yl)chroman-3-yl)-6-methylthieno[2,3-b]pyridine-2-carboxamide], the IC50 was 0.05 to 0.2 µM.
As to `Cc1ccc2c(N)c(C(=O)N[C@H]3COc4cc(N5CCS(=O)(=O)CC5)ccc4C3)sc2n1` [Example 5-2, (R)-3-amino-N-(7-(1,1-dioxidothiomorpholino)chroman-3-yl)-6-methylthieno[2,3-b]pyridine-2-carboxamide], the IC50 was 0.05 to 0.2 µM.
`Cc1ccc2c(N)c(C(=O)N[C@H]3COc4cc(N5CC(O)(C(F)(F)F)C5)ccc4C3)sc2n1` [Example 5-3, (R)-3-amino-N-(7-(3-hydroxy-3-(trifluoromethyl)azetidin-1-yl)chroman-3-yl)-6-methylthieno[2,3-b]pyridine-2-carboxamide]: the IC50 lay within 0.2 to 2 µM.
The value for `Cc1ccc2c(N)c(C(=O)N[C@H]3COc4cc(N5CC6COCC(C5)C6(F)F)ccc4C3)sc2n1` [Example 5-4, 3-amino-N-((3R)-7-(9,9-difluoro-3-oxa-7-azabicyclo[3.3.1]nonan-7-yl)chroman-3-yl)-6-methylthieno[2,3-b]pyridine-2-carboxamide] was 0.05 to 0.2 µM; that for `Cc1ccc2c(N)c(C(=O)N[C@H]3COc4cc(N5CCC(C(=O)O)CC5)ccc4C3)sc2n1` [Example 6-1, (R)-1-(3-(3-Amino-6-methylthieno[2,3-b]pyridine-2-carboxamido)chroman-7-yl)piperidine-4-carboxylic Acid] was greater than 2 µM.
On to `Cc1ccc2c(N)c(C(=O)N[C@H]3COc4cc(N5CC[C@@H](C(=O)O)C5)ccc4C3)sc2n1` [Example 6-2, (R)-1-((R)-3-(3-amino-6-methylthieno[2,3-b]pyridine-2-carboxamido)chroman-7-yl)pyrrolidine-3-carboxylic acid], for which the IC50 is greater than 2 µM.
On to `Cc1ccc2c(N)c(C(=O)N[C@H]3COc4cc(N5CC[C@H](C(=O)O)C5)ccc4C3)sc2n1` [Example 6-3, (S)-1-((R)-3-(3-amino-6-methylthieno[2,3-b]pyridine-2-carboxamido)chroman-7-yl)pyrrolidine-3-carboxylic acid], for which the IC50 is greater than 2 µM.
`Cc1cnc2c(N)c(C(=O)N[C@H]3CCc4cc(N5CC(C(=O)O)C5)ccc4C3)sc2n1` [Example 6-4, (S)-1-(6-(7-amino-3-methylthieno[2,3-b]pyrazine-6-carboxamido)-5,6,7,8-tetrahydronaphthalen-2-yl)azetidine-3-carboxylic acid]: the IC50 is greater than 2 µM.
The value for `Cc1ccc2c(N)c(C(=O)N[C@H]3COc4cc(N5CCC(O)CC5)ccc4C3)sc2n1` [Example 7-1, (R)-3-amino-N-(7-(4-hydroxypiperidin-1-yl)chroman-3-yl)-6-methylthieno[2,3-b]pyridine-2-carboxamide] was 0.2 to 2 µM.
The result for `Cc1ccc2c(N)c(C(=O)N[C@H]3COc4cc(N5CCC[C@](C)(O)C5)ccc4C3)sc2n1` [Example 7-2] reads 0.2 to 2 µM; that for `Cc1ccc2c(N)c(C(=O)N[C@H]3COc4cc(N5CCC[C@@](C)(O)C5)ccc4C3)sc2n1` [Example 7-3, 3-amino-N-((R)-7-((R)-3-hydroxy-3-methylpiperidin-l-yl)chroman-3-yl)-6-methylthieno[2,3-b]pyridine-2-carboxamide], 0.2 to 2 µM.

(Values after patent US11524966B1 (Valo Early Discovery, Inc., priority 2017, dated 2022).)
